Data from patent publication US20230372382A1, “USE OF ADENOSINE DIPHOSPHATE RIBOSE FOR ADJUVANT THERAPY WITH RADIATION AND/OR ANTI-CANCER TREATMENT” (PearlsInMires Co., Ltd., priority 2021, published 2023).

Key:
[1] = system: Pancreatic cancer (AsPC-1) cells; assay: Xenograft model, combination with radiation, tumor volume; assay type: in vivo, BALB/c nude mice; conditions: AsPC-1 xenograft
Experimental: Brain cancer (U-87MG), pancreatic cancer (AsPC-1), breast cancer (MDA-MB-231), or kidney cancer (Caki-1) cells (1×10^7 cells) were inoculated into 5-week-old BALB/c nude mice on the back flank, respectively. Then, when tumors were grown to a volume of approximately 150 mm^3, the mice were divided into three groups: the control group (Control), 2 Gy dose of radiation alone, and a combination administration of 2 Gy dose of radiation+10 mg/kg of ADP-ribose (subcutaneous administration, 3 times a week). The irradiation was performed with an X-Rad 320 irradiator (Precision X-ray, North Branford, CT, USA), wherein the mice were placed by maintaining an appropriate distance from the radiation source for irradiation with a predetermined radiation dose. A lead shield was used to protect the body parts or organs from exposure to radiation, other than the cancerous part of the mouse. The irradiation was performed with a total of 2 Gy of radiation fractionated into two doses of 1 Gy each (for 2 days) at a dose rate of 300 kVp and 150 cGy/min using an X-ray beam filter composed of 12.5 mA and 2.0 mm Al. The tumor size was measured every 6 days using a digital caliper, and the results of changes in tumor volume were compared by the group.
Pancreatic cancer (AsPC-1) cells (1×10^7) were inoculated into 5-week-old BALB/c nude mice on the back flank, and the mice were divided into three groups: the control group (Control), 2 Gy dose of radiation alone, and combination administration of 2 Gy dose radiation+10 mg/kg of ADP-ribose. When the tumors were grown to a volume of approximately 150 mm^3, 2 Gy dose of radiation was irradiated twice at 1 Gy each, and 10 mg/kg of ADP-ribose was injected subcutaneously 3 times a week. The tumor size was measured using a digital caliper, and the results of changes in tumor volume were compared by the group.

Caki-1 cells = assay: Cell death by combination treatment of ADP-ribose and radiation (MTT); assay type: cell-based; conditions: Caki-1, 16 μM ADP-ribose in combination with 2 Gy radiation, 24 hours, P<0.001; 2 Gy alone about 94.7%
Experimental: 3×10^3 Caki-1 cells were cultured in a 96-well plate for 24 hours under conditions of 37° C. and 5% CO2, treated with 16 μM of ADP-ribose and 2 or 5 Gy dose of radiation individually or in combination, and cultured for 24 hours under conditions of 37° C. and 5% CO2 again. Then, 10 μl of 3-(4,5-dimethylthiazol-2-yl)-2,5-diphenyltetrazolium bromide reagent was added to each well and reacted for 1 hour. After the reaction was completed, the reagent was removed, 200 μl of dimethyl sulfoxide was added to each well, and the absorbance was measured to confirm cell viability.

[2] = system: Pancreatic cancer (AsPC-1) cells; assay: Xenograft model, oral ADP-ribose, tumor volume; assay type: in vivo, BALB/c nude mice; conditions: AsPC-1 xenograft, 5 times a week, control about 3194.3
Experimental: Pancreatic cancer (AsPC-1) or kidney cancer (Caki-1) cells (1×10^7 cells) were inoculated into 5-week-old BALB/c nude mice on the back flank, and the mice were grown up to approximately 150 mm^3 of the tumor volume. Then, three concentrations of ADP-ribose were administered subcutaneously, intravenously, and orally 3 times a week. The tumor size was measured every 6 days using a digital caliper, and the changes in tumor volume were compared for each group.
Pancreatic cancer (AsPC-1) cells (1×10^7) were inoculated into 5-week-old BALB/c nude mice on the back flank, and the mice were divided into four groups: the control group (Control) and groups administered orally with 10, 40, and 80 mg/kg of ADP-ribose. When the tumors were grown to a volume of approximately 150 mm^3, each concentration of ADP-ribose was orally administered 5 times a week. The tumor size was measured using a digital caliper, and the results of changes in tumor volume were compared by the group.

AsPC-1 cells = assay: Transwell metastasis and invasion ability of cancer cells; assay type: cell-based; conditions: AsPC-1, 16 μM ADP-ribose
Experimental: (§1) Metastasis and invasion ability of cancer cells were analyzed by using a transwell having polycarbonate membrane filters with 8.0 μm pore size. The transwell was put into a 24-well plate. In each well, pancreatic cancer (Aspc-1) and breast cancer (MDA-MB-231) cells were seeded on the upper surface of the insert at a density of 3.5×10^5 cells per well, divided into the untreated group and ADP-ribose-treated groups, and cultured under conditions of 37° C. and 5% CO2 for 24 hours. After culturing, the transwell was carefully washed with sterile water and then placed in 100% methanol to fix the attached cells. After fixation, the cells were stained with hematoxylin and an eosin reagent to observe the cells, and the ratio of cells that permeated the upper surface of the insert and metastasized and invaded the lower surface, compared to the untreated group, was obtained.
(§2) Analysis was performed using a transwell having polycarbonate membrane filters with 8.0 μm pore size. […] After culturing, the transwell was carefully washed with sterile water and then placed in 100% methanol to fix the attached cells. After fixation, the cells were stained with hematoxylin and an eosin reagent to observe the cells.

MDA-MB-231 cells = assay: as above; assay type: cell-based; conditions: MDA-MB-231, 32 μM ADP-ribose
Experimental: as §1, §2

H1975 cells = assay: Cell death by combination treatment of ADP-ribose and radiation (MTT); assay type: cell-based; conditions: H1975, 2 μM ADP-ribose in combination with 2 Gy radiation, 24 hours, P<0.001; 2 Gy alone about 75%
Experimental: 3×10^3 H1975 cells were cultured in a 96-well plate for 24 hours under conditions of 37° C. and 5% Ca2, treated with 2 μM of ADP-ribose and 2 or 5 Gy dose of radiation individually or in combination, and cultured for 24 hours under conditions of 37° C. and 5% CO2 again. Then, 10 μl of 3-(4,5-dimethylthiazol-2-yl)-2,5-diphenyltetrazolium bromide reagent was added to each well and reacted for 1 hour. After the reaction was completed, the reagent was removed, 200 μl of dimethyl sulfoxide was added to each well, and the absorbance was measured to confirm cell viability.

HCT116 cells = assay: Cancer cell death verification (MTT cell viability); assay type: cell-based
Experimental: 3×10^3 Brain cancer (U-87MG), lung cancer (H1975), pancreatic cancer (Aspc-1), liver cancer (Hep G2), breast cancer (MDA-MB-231), colon cancer (HCT116), kidney cancer (Caki-1), gastric cancer (SNU-1) and ovarian cancer (OVCAR-3) cells were cultured in a 96-well plate under conditions of 37° C. and 5% CO2 for 24 hours, and then each cancer cell was treated with ADP-ribose at each concentration. After culturing for 24 hours under conditions of 37° C. and 5% CO2 again, 10 μl of 3-(4,5-dimethylthiazol-2-yl)-2,5-diphenyltetrazolium bromide reagent was added to each well and reacted for 1 hour. After the reaction was completed, the reagent was removed, 200 μl of dimethyl sulfoxide was added to each well, and the absorbance was measured to determine the concentration of half-lethality and maximum lethality compared to untreated cells.
3×10^3 HCT116 cells were cultured in a 96-well plate for 24 hours under conditions of 37° C. and 5% Ca2, treated with ADP-ribose at concentrations of 0.125, 0.25, 0.5, 1, 2, 4, 8, 16, and 32 μM, respectively, and cultured again for 24 hours under conditions of 37° C. and 5% CO2. Then, 10 μl of 3-(4,5-dimethylthiazol-2-yl)-2,5-diphenyltetrazolium bromide reagent was added to each well and reacted for 1 hour. After the reaction was completed, the reagent was removed, 200 μl of dimethyl sulfoxide was added to each well, and the absorbance was measured to confirm cell viability.

[3] = ADP-ribose 10 mg/kg s.c. + 2 Gy radiation, P<0.001

Compound: Nc1ncnc2c1ncn2[C@@H]1O[C@H](COP(=O)(O)OP(=O)(O)OC[C@H]2O[C@@H](O)C(O)C2O)C(O)C1O (stereo partly drawn) [ADP-ribose, adenosine diphosphate ribose]
- reduction of tumor volume compared to the control group [1, 3]: about 69.1%
- reduction of tumor volume compared to the group treated with 2 Gy dose of radiation alone [1, 3]: about 57.3%
- final tumor volume ([1]; ADP-ribose 10 mg/kg subcutaneous 3 times a week + 2 Gy radiation, control about 2384.3, 2 Gy alone about 1725.5): about 736.2 mm^3
- survival rate of cancer cells (Caki-1 cells): about 22.7%
- final tumor volume ([2]; 10 mg/kg oral): 1798.6 mm^3
- final tumor volume ([2]; 40 mg/kg oral): 1175.9 mm^3
- final tumor volume ([2]; 80 mg/kg oral): 1056.9 mm^3
- invasion and metastasis from upper to lower part of the transwell (photomicrograph) (AsPC-1 cells; 24 hours, FIG. 10A): significantly inhibited
- metastasis and invasion ability, quantitatively measured, compared to the control group (AsPC-1 cells; P<0.001, FIG. 10B): significantly reduced
- invasion and metastasis from upper to lower part of the transwell (photomicrograph) (MDA-MB-231 cells; 24 hours, FIG. 11A): significantly inhibited
- metastasis and invasion ability, quantitatively measured, compared to the control group (MDA-MB-231 cells; P<0.001, FIG. 11B): significantly reduced
- survival rate of cancer cells (H1975 cells): about 8%
- maximum lethal dose (concentration at which almost all cells were killed) (HCT116 cells; HCT116, 24 hours, MTT): 32 µM
- cancer cell growth under a microscope (HCT116 cells; HCT116, ADP-ribose treated vs control, FIG. 7A): inhibited from growing and killed
- IC50 (HCT116 cells; Homo sapiens, HCT-116, 24 h, read-out: half-lethal dose (concentration at which about half of the cells were killed)): ~8 µM
